Assay results taken from PubChem BioAssay AID977607 (Broad Institute, 2014).
Activity calls are given as the source filed them.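 Rule for the calls: active = curve reaches 40% activation over neutral controls at an AC40 no higher than the top valid tested concentration; inconclusive = no clear call, values can overlap the other calls; inactive = signal moving opposite to the expected increase, and the rest.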

Each compound was assayed on INS-1E GLuc insulin secretion reporter, luminescence, 2-3 h (assay: GLuc-reported insulin release enhancers, glucose-stimulated beta cells – cell-based, INS-1E, Gaussia luciferase, luminescence, cherry-pick, set 2, dose response (AID 977607)).

| SMILES | AC40 |
| --- | --- |
| COc1ccccc1NC(=O)N1CCCCN2[C@@H](CO)[C@@H](c3ccc(C#CC4CCCC4)cc3)[C@@H]2C1 | 16.5 µM |
| COc1cc2c(cc1OC)[C@H](C)N(C(=O)NCc1ccccc1)CC2 | 8 µM |
| COc1cc(OC)c2c3c(c(C4CCCCC4)nc2c1)CCC3 | 9.8 µM |
| CC(C)(C)c1ccc(OCC(=O)Nc2ccc(-c3nc4cccnc4o3)cc2)cc1 | 9.2 µM |
| O=C1Nc2cnc(Cl)nc2Nc2ccccc21 | > 35 µM (inactive) |
| COc1ccc(C2=NN(C(=O)c3ccco3)C(c3cccs3)C2)cc1OC (stereo not given) | 1.94 µM |
| CCCCNc1cc(Cl)nc(N)n1 | 7.24 µM |
| CC(C)Sc1nc2c(c(=O)[nH]c(=O)n2C)n1Cc1ccc(Cl)cc1 | 19.9 µM |
| COc1ccc(-c2ccc(SCc3cccnc3)nn2)cc1OC | 0.451 µM |
| CCCCCCCCN1C(=O)[C@@H](CC(=O)N2CCN(C(=O)c3ccco3)CC2)C[C@@]2(C(=O)OC)C1=C[C@H](C1CCCC1)O[C@@H]2C | 12 µM |
| CCOc1nc(NC(=O)NS(=O)(=O)c2cccc(Cl)c2)nc(-c2ccccc2)n1 | > 35 µM (inactive) |
| O=c1cc(-c2ccncc2)oc2c1ccc1ccccc12 | 11.6 µM |
| CC(=O)N(C1CC(C)C(C#N)(C#N)C1(C#N)C#N)N(C)C (stereo not given) | 1.85 µM |
| C/C=C/c1ccc(C2[C@@H]3CN(C(=O)Nc4ccc(C(F)(F)F)cc4)C[C@H]2N3)cc1 (stereo not given in full) | 12.5 µM |
| CCC1OC(C2CC2)CC2=C1C(=O)OC(C)(C)O2 (stereo not given) | 4.79 µM |
| COc1nc(-c2ccc(Cl)cc2)ccc1-c1noc(-c2ccco2)n1 | 19.5 µM |
| Fc1ccc(/C=N/c2c(-c3ccc(F)cc3)nc3n2CCS3)cc1 | 6.62 µM |
| CCOC(=O)c1cnc2ccc(Cl)cc2c1Nc1ccc(S(=O)(=O)Nc2ncccn2)cc1 | 3.45 µM |
| C=CCNc1nc(NCc2ccco2)nc(OCC)n1 | > 35 µM (inactive) |
| NC(c1csc(NC(=O)Nc2cccc(C(F)(F)F)c2)n1)C1CCCCC1 (stereo not given) | 6.13 µM |
| COc1ccc(C)c2sc(N(CCCN(C)C)C(=O)c3ccc(S(=O)(=O)N4CCc5ccccc5C4)cc3)nc12 | 3.95 µM |
| Cc1nn(Cc2ccc(Cl)cc2Cl)c(Cl)c1C(=O)Nc1ccc(OC(F)F)cc1 | 6.5 µM |
| COc1cc(CNCCc2ccccc2)cc(Cl)c1OCc1ccccc1 | 9.79 µM |
| O=C(NN=Cc1ccccc1Cl)c1cccc2ccccc12 | 11.6 µM |
| Nc1nc(N)c2cc(Sc3ccc(Cl)cc3)ccc2n1 | 7.16 µM |
| CCCNC(=O)c1nnsc1S(=O)c1ccc(Cl)cc1 (stereo not given) | 1.06 µM |
| CC(=O)Nc1c(C(=O)C2CC2)oc2ccccc12 | 6.8 µM |
| CC(C)Nc1nc(Nc2ccc(C(N)=O)cc2)c2sccc2n1 | 9.89 µM |

| SMILES | AC40 |
| --- | --- |
| CCOC(=O)Nc1cccc(OCC(=O)Nc2ccc3c(c2)CCC3)c1 | 7.83 µM |
| CC1(C(=O)NS(=O)(=O)c2ccc(C#N)cc2)CCN1C(=O)C1(c2ccccc2)CCCC1 (stereo not given) | > 35 µM (inactive) |
| O=C(N/N=C\c1ccc(CNS(=O)(=O)c2ccc(Cl)cc2)o1)C(=O)Nc1ccc(Oc2ccccc2)cc1 | 13.9 µM |
| Cc1ccc(CN(C(=O)c2cccs2)C2CCS(=O)(=O)C2)cc1 (stereo not given) | 19.7 µM |
| O=c1c2ccccc2sn1-c1ccccc1F | 3.87 µM |
| O=c1[nH]cnc2nc(-c3ccc(N(CCCl)CCCl)cc3)[nH]c12 | 5.89 µM |
| OC(c1ccccc1)(c1nc(-c2cccc(C(F)(F)F)c2)cs1)C(F)(F)F (stereo not given) | 10.3 µM |
| CCOC(=O)c1cnc2c(Cl)c(Cl)ccc2c1NCCN1CCOCC1 | > 35 µM (inactive) |
| Clc1ccc(-c2ccnc(Oc3cc(Cl)ccc3Cl)n2)cc1 | 7.53 µM |
| O=C(O)c1ccc(/C=N/n2c(C3CCCCC3)n[nH]c2=S)cc1 | 5.87 µM |
| COc1cc2c(cc1OC)-c1cc(Nc3ccc(N(C)C)cc3)nc(=O)n1CC2 | 5.31 µM |
| COc1ccc(-c2nnn(Cc3nc(N)nc(N4CCOCC4)n3)n2)cc1OC | 1.67 µM |
| COc1ccc(C(O)c2nc(-c3ccc(OC)c(OC)c3)cs2)cc1 (stereo not given) | > 35 µM (inactive) |
| Cc1ccccc1-c1ccc(C2[C@@H]3CN(C(=O)Nc4cccc(F)c4)C[C@H]2N3)cc1 (stereo not given in full) | 8.64 µM |
| CC(C)CCn1c(N2CCCC2)nc2c1c(=O)[nH]c(=O)n2C | 31.7 µM |
| c1ccc(Cn2nnc3c(N4CCc5ccccc54)ncnc32)cc1 | 5.06 µM |
| N#Cc1c(N)n(C2CCCCC2)c2nc3ccccc3nc12 | 18.9 µM |
| CC(C)n1nc(C(=O)Nc2ccccc2N2CCOCC2)c2ccccc2c1=O | 8.07 µM |
| COc1ccc(S(=O)(=O)Nc2ccccc2OC)cc1N=Nc1c(O)[nH]c(=S)[nH]c1=O | 16.4 µM |
| CNc1nc(-c2ccccc2)[n+](-c2ccc(C)cc2)s1 | 2.16 µM |
| COc1ccccc1C(=O)NC(=S)Nc1ccc2[nH]c(=O)[nH]c2c1 | 25.1 µM |
| CN(C)S(=O)(=O)c1cccc(-n2sc3ccccc3c2=O)c1 | 4.6 µM |
| Cc1ccc(C)c(OCC(=O)N/N=C/c2c(C)nn(-c3ccccc3)c2Cl)c1C | 3.2 µM |
| CC(C)CSc1nc2c(c(=O)[nH]c(=O)n2C)n1CCc1ccccc1 | 8.81 µM |
| O=c1c2ccc(F)cc2sn1-c1ccccc1 | 4.2 µM |
| COc1ccc2c(c1)CCc1c(C(=O)Nc3cc(C)n(Cc4ccc(Cl)cc4)n3)noc1-2 | 6.07 µM |
| Cc1cccc(C(C)C)c1NC(=O)COC(=O)c1cccc(S(=O)(=O)N2CCc3ccccc3C2)c1 | 10.9 µM |
